According to paper PMC8485325, “Penetrating the Blood-Brain Barrier with New Peptide–Porphyrin Conjugates Having anti-HIV Activity” (Bioconjugate Chemistry, 2021):
Where two headings read alike, the source gives them in different places. Ends that are not written are not given here.

Assays:
[1] = tested on: HIV-1NL4-3; experiment: In vitro inhibition of HIV-1NL4-3 infection of TZM-bl cells (luciferase reporter); format: cell-based; conditions: for IC50: TZM-bl cells; for HIV inhibition (in words): in vitro, absence of photoactivation
Method: Viral supernatants harvested from pNL4-3-transfected HEK293T cells were titered through the Reed-Muench method[56] based on HIV-1NL4–3 infectivity against TZM-bl cell cultures. TZM-bl cells were seeded at 2 × 10^4 cells/well in tissue culture-treated 96-well microplates from Corning (Corning, NY, USA), and incubated for 24 h. Cells were then incubated with 2-fold serial dilutions of viral supernatants for 3 h, after which the supernatant was replaced with fresh complete medium. After 45 h, TZM-bl cell infection was quantified through luciferase reporter-gene expression levels, under the control of an HIV-1 TAT-dependent LTR promoter[57] using the Luc-Screen luciferase chemiluminescence detection system. Luminescence was measured in an Infinite M200 microplate reader from Tecan (Männedorf, Switzerland). […] Titration was performed with at least four replicates to allow accurate estimation of TCID50 in viral supernatants.
The inhibitory activity of conjugates on HIV-1NL4–3 entry into TZM-bl cells was evaluated as previously described.[58] TZM-bl cells were seeded at 2 × 10^4 cells/well in tissue culture-treated 96-well microplates and incubated for 24 h. HIV-1NL4–3 viral supernatants (100 or 10 TCID50/well) were then incubated for 1 h with 2-fold serial dilutions of either nonconjugated peptide and porphyrins or conjugates, after which the infection mixture was added to TZM-bl cells. Untreated cells (in the absence of peptide–porphyrin conjugate) were used as control. Virions were incubated with cells for 3 h, after which cells were washed to remove unbound virions and new medium was added. After 45 h, infection was quantified by the Luc-Screen chemiluminescence assay. Measurements were performed in an Infinite M200 microplate reader. […] At least three independent experiments were performed for each assay.

[2] = tested on: bEnd.3 cell monolayers
Method: Figure 4 PPCs translocation across a bEnd.3 in vitro BBB model. (A) bEnd.3 in vitro BBB model transwell system. The insert, or apex, corresponds to the blood side, while the base (bottom chamber) corresponds to the brain side. (B) After formation of a monolayer, 10 μM of each conjugate was added to the apical side of the tissue culture inserts. After incubation for 24 h, samples from the basolateral side were collected, and the percentage of translocation of each conjugate (black) was calculated. FD4 permeability (gray) was measured to determine monolayer integrity post-PPCs translocation.
After 24 h incubation with conjugates, an in vitro integrity assay was performed.[19] Briefly, cells were washed twice with PBS and once with DMEM medium without phenol red. Then, previously diluted 4 kDa fluorescein isothiocyanate-dextran (FD4) (Sigma-Aldrich, Spain) in DMEM without phenol red to an absorbance of 0.1 was added to the apical side and incubated for 2 h. Samples were collected from the apical and basolateral side, and fluorescence intensity was measured with λext = 493 nm and λem = 520 nm, using a Varioskan Lux plate reader. The integrity of the barrier was determined as follows: [drawing 2] 2 where Fi is the recovered fluorescence intensity, Fcells is the recovered fluorescence intensity from cells without FD4 incubation, FFD4 is the fluorescence intensity of total FD4 initially added to the transwell apical side, and FMedium is the fluorescence intensity of DMEM medium without phenol red.

[3] = tested on: TZM-bl cells; format: cell-based
Method: TZM-bl Cell Viability Studies
The cytotoxic effects of each PPC on TZM-bl cell cultures were assessed to ensure that HIV inhibition was a result of the compounds effect on the virus and not on the host cells used in the assay. A resazurin reduction fluorometric assay was performed. Resazurin, the active compound in alamarBlue®, is a blue dye that can be reduced to a pink fluorescent intermediate, resorufin, as a result of cell metabolic activity.6 TZM-bl cells were seeded at 2x10^4 cells/well in tissue culture-treated 96-well microplates and incubated for 24 h. Cells were then incubated with serial dilutions (2-fold) of single peptide and porphyrins, or PPC, for 3 h, after which the mixture was replaced with fresh complete medium. Untreated cells (in the absence of peptide-porphyrin combinations) were used as a control. After 42 h, media was replaced with alamarBlue® reagent and incubated for an additional 3 h. Resazurin reduction was quantified by resorufin fluorescent emission intensity, measured in an Infinite M200 microplate reader. Fluorescence emission intensity was collected at 590 nm, using a fixed λ exc of 560 nm. Excitation and emission slits were 9 and 20 nm, respectively. Cell viability was calculated through the following formalism: […]
where I EI corresponds to the resorufin fluorescence emission intensity in the presence of EIs or combination, I control to the fluorescence emission intensity in the absence of EIs and I background to the background fluorescence emission from the non-reduced […]
P5, P4-MP, MP-L-P3 and P4-L-M - are presented here.
TZM-bl cell viability on the concentration range tested.
(1 picture or pasted object on this page, not shown here)
Figure S7. PPCs cytotoxic effects against TZM-bl cells. A resazurin reduction fluorometric assay, dependent on the cell metabolic activity, was used. Cell viability, normalized to the control in the absence of PPC, was measured against three concentrations of each individual PPC: MP-P3 (black), MP-P5 (white), P4-MP (red), MP-L-P3 (blue) and P4-L-MP (green).

[4] = tested on: human erythrocytes; experiment: Hemolysis assay; format: cell-based
Method: Plates were incubated for 1 h at 37 °C with 100 rpm stirring, then centrifuged for 5 min at 4000 rpm, 4 °C, and supernatants were transferred to a 96-well flat-bottom polystyrene plate (Corning). Hemolysis was assessed by hemoglobin (Hb) release, measured by absorbance at 415 nm in a Varioskan LUXTM microplate reader (Thermo Fisher Scientific, Inc.). As porphyrin and Hb spectra are partially overlapping, to exclude porphyrin interference in Hb quantification a blank reading of each PPC (no hRBCs, TN buffer +1% DMSO) was subtracted from each measurement. TN buffer (+1% DMSO, no conjugate) and hRBCs with 1% Triton X-100 were used as negative and positive controls, respectively. Hemolysis (%) was determined using the following equation: [drawing 6] 6 where Abstreated is the absorbance of hRBC treated with the conjugates, Absconjugate is the absorbance from each conjugate concentration without hRBCs, AbsTriton is the absorbance of Triton X-100 treated hRBCs, and Absbuffer is the absorbance of TN buffer alone. HC50 values were determined by GraphPad Prism 8 software using a log(inhibitor) vs normalized response (variable slope). Experiments were performed using 3 different blood donors.

[5] = 10 TCDI50 per well (approximate physiological conditions of HIV brain infection), read-out: IC50 HIV inhibition, 10 TCDI50
[6] = 100 TCDI50 per well, no-light, read-out: IC50 HIV inhibition, 100 TCDI50

MP-P5: mesoporphyrin IX coupled to the N-terminal amino group of peptide P5 (SGTQEEY-amide) ({mesoporphyrin IX}-SGTQEEY-NH2)
IC50 [1, 5]: 10 ± 2.9 µM | IC50 [1, 6]: 33.1 ± 1.38 µM | HIV inhibition (in words) [1]: inhibit HIV in vitro | % Base (RFI), FD4 Permeability (monolayer integrity post-translocation) [2]: 9.4% | TZM-bl cell viability (in words) [3]: did not alter significantly | Hemolytic activity (in words) [4]: totally lacked hemolytic activity

P4-MP: mesoporphyrin IX coupled to the C-terminal Lys side chain of peptide P4 (AGILKRWK-amide) (AGILKRWK(mesoporphyrin IX)-NH2)
IC50 [1, 5]: 5.77 ± 1.17 µM | IC50 [1, 6]: 34 ± 1.25 µM | HIV inhibition (in words) [1]: inhibit HIV in vitro | % Base (RFI), FD4 Permeability (monolayer integrity post-translocation) [2]: 15.3% | TZM-bl cell viability (in words) [3]: did not alter significantly | Hemolytic activity (in words) [4]: totally lacked hemolytic activity
